Data reported in the supplement of paper PMC11061612.

Columns and labels:
SF539 (Glioblastoma) = assay: combination Emax (second highest fraction inhibited in the dose matrix, 72 h); higher = more inhibition; extreme values may be limits of the assay
Outline: (§1)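 Bliss excess equals the observed combination effect minus the expected value EA + EB − EA·EB, where EA and EB are the effects of each agent alone. Combination Emax is the second-highest inhibition within the matrix. Inhibition was scaled from CellTiter-Glo 2.0 luminescence, with 0 set by vehicle wells and 1 by blank wells, after 72 hours of two-drug dosing of cells plated in 1536-well plates.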

[1] = tested on: SK-PN-DW (Other Solid Carcinomas); assay: as above
Outline: as §1

NB12 (Neuroblastoma) = assay: as above
Outline: as §1

[2] = tested on: OPM-2 (Plasma Cell Myeloma); assay: as above
Outline: as §1

A2058 (Melanoma) [3] = assay: as above
Outline: as §1

[4] = tested on: L-1236 (Hodgkin's Lymphoma); assay: as above
Outline: as §1

IST-MES1 (Mesothelioma) = assay: as above
Outline: as §1

[5] = tested on: RERF-GC-1B (Gastric Carcinoma); assay: as above
Outline: as §1

[6] = tested on: NCI-H23 (Lung Adenocarcinoma); assay: as above
Outline: as §1

[7] = tested on: OVMIU (Ovarian Carcinoma); assay: as above
Outline: as §1

[8] = tested on: OAW-42 (Ovarian Carcinoma); assay: as above
Outline: as §1

[9] = tested on: PANC-03-27 (Pancreatic Carcinoma); assay: as above
Outline: as §1

[10] = tested on: NCI-H446 (Small Cell Lung Carcinoma); assay: as above
Outline: as §1

LN-229 (Glioblastoma) [11] = assay: as above
Outline: as §1

A2058 (Melanoma) [12] = assay: Bliss excess, mean over the matrix (fraction); higher = more synergy
Outline: as §1

[13] = tested on: RERF-GC-1B (Gastric Carcinoma); assay: as above
Outline: as §1

[14] = tested on: NCI-H23 (Lung Adenocarcinoma); assay: as above
Outline: as §1

[15] = tested on: OAW-42 (Ovarian Carcinoma); assay: as above
Outline: as §1

[16] = tested on: NCI-H446 (Small Cell Lung Carcinoma); assay: as above
Outline: as §1

LN-229 (Glioblastoma) [17] = assay: as above
Outline: as §1

CS(=O)(=O)CCNCc1ccc(-c2ccc3ncnc(Nc4ccc(OCc5cccc(F)c5)c(Cl)c4)c3c2)o1 [Lapatinib] + NC1(c2ccc(-c3nc4ccn5c(=O)[nH]nc5c4cc3-c3ccccc3)cc2)CCC1 [MK-2206] (first compound max 10 µM, 7x7, partner max 10 µM)
combination Emax (SF539 (Glioblastoma)): 0.953 | combination Emax [1]: 0.933 | combination Emax (NB12 (Neuroblastoma)): 0.843 | combination Emax [2]: 0.972 | combination Emax (A2058 (Melanoma) [3]): 0.982 | combination Emax [4]: 0.888 | combination Emax (IST-MES1 (Mesothelioma)): 0.638 | combination Emax [5]: 0.943 | combination Emax [6]: 0.338 | combination Emax [7]: 0.891 | combination Emax [8]: 0.819 | combination Emax [9]: 0.76 | combination Emax [10]: 0.962 | combination Emax (LN-229 (Glioblastoma) [11]): 0.207 | Bliss excess (A2058 (Melanoma) [12]): -0.049 | Bliss excess [13]: 0.0194 | Bliss excess [14]: -0.0481 | Bliss excess [15]: -0.0089 | Bliss excess [16]: -0.0173 | Bliss excess (LN-229 (Glioblastoma) [17]): -0.0959

N#Cc1cnc(Nc2cc(NC[C@H]3CNCCO3)c(C(F)(F)F)cn2)cn1 [SRA737] + CCc1c2c(nc3ccc(O)cc13)-c1cc3c(c(=O)n1C2)COC(=O)[C@]3(O)CC [SN-38] (first compound max 10 µM, 7x7, partner max 0.3 µM)
combination Emax (SF539 (Glioblastoma)): 0.971 | combination Emax [1]: 0.927 | combination Emax (NB12 (Neuroblastoma)): 0.705 | combination Emax [2]: 0.926 | combination Emax [4]: 0.944 | combination Emax (IST-MES1 (Mesothelioma)): 0.759 | combination Emax [7]: 0.404 | combination Emax [9]: 0.844

N#Cc1cnc(Nc2cc(NC[C@H]3CNCCO3)c(C(F)(F)F)cn2)cn1 [SRA737] + Nc1ccn([C@@H]2O[C@H](CO)[C@@H](O)C2(F)F)c(=O)n1 [Gemcitabine] (first compound max 10 µM, 7x7, partner max 0.3 µM)
combination Emax (SF539 (Glioblastoma)): 0.947 | combination Emax [1]: 0.933 | combination Emax (NB12 (Neuroblastoma)): 0.742 | combination Emax [2]: 0.911 | combination Emax [4]: 0.948 | combination Emax (IST-MES1 (Mesothelioma)): 0.857 | combination Emax [7]: 0.456 | combination Emax [9]: 0.729

N#Cc1cnc(Nc2cc(NC[C@H]3CNCCO3)c(C(F)(F)F)cn2)cn1 [SRA737] + O=c1[nH]cc(F)c(=O)[nH]1 [5-Fluorouracil] (first compound max 10 µM, 7x7, partner max 20 µM)
combination Emax (SF539 (Glioblastoma)): 0.915 | combination Emax [1]: 0.956 | combination Emax (NB12 (Neuroblastoma)): 0.173 | combination Emax [2]: 0.84 | combination Emax [4]: 0.94 | combination Emax (IST-MES1 (Mesothelioma)): 0.288 | combination Emax [7]: 0.413 | combination Emax [9]: 0.725

Cc1nc(-c2cn3c(n2)-c2ccc(-c4cnn(C(C)(C)C(N)=O)c4)cc2OCC3)n(C(C)C)n1 [Taselisib] + O=C(Nc1ccc2[nH]nc(-c3ccncc3)c2c1)[C@@H]1CCN(CC(=O)N2CCN(c3ccc(-c4ncccn4)cc3)CC2)C1 [SCH772984] (first compound max 10 µM, 7x7, partner max 5 µM)
combination Emax (SF539 (Glioblastoma)): 0.934 | combination Emax [1]: 0.609 | combination Emax (NB12 (Neuroblastoma)): 0.684 | combination Emax [2]: 1 | combination Emax [4]: 0.722 | combination Emax (IST-MES1 (Mesothelioma)): 0.516 | combination Emax [7]: 0.904 | combination Emax [9]: 0.885

CC1(C)CCC(CN2CCN(c3ccc(C(=O)NS(=O)(=O)c4ccc(NCC5CCOCC5)c([N+](=O)[O-])c4)c(Oc4cnc5[nH]ccc5c4)c3)CC2)=C(c2ccc(Cl)cc2)C1 [Venetoclax] + CS(=O)(=O)CCNCc1ccc(-c2ccc3ncnc(Nc4ccc(OCc5cccc(F)c5)c(Cl)c4)c3c2)o1 [Lapatinib] (first compound max 1 µM, 7x7, partner max 10 µM)
combination Emax (SF539 (Glioblastoma)): 0.309 | combination Emax [1]: 0.455 | combination Emax (NB12 (Neuroblastoma)): 0.915 | combination Emax [2]: 0.64 | combination Emax [4]: 0.655 | combination Emax (IST-MES1 (Mesothelioma)): 0.313 | combination Emax [7]: 0.607 | combination Emax [9]: 0.5
